This is an account of results in DBAASP.

Converted amounts (≈) assume the structure as drawn. “And” between values parts separate entries of the source, which are not always exact repeats. Equal entries are not always repeated.

As usually defined, the MIC is the lowest concentration that inhibits growth of the organism. Low values mean a more susceptible organism, high ones a less susceptible organism.

What all share (assay): ≥ marks a high value that may be exact or a test limit, other limits are often not marked, values filed in µg/mL are converted to µM
Experiment [1] has as its system Candida albicans ATCC 90028.
Experiment [2] has as its system Escherichia coli ATCC 25922.
In experiment [3] the test system is Staphylococcus aureus NCTC 8325.
The subject of experiment [4] is Acinetobacter baumannii ATCC 19606.
The subject of experiment [5] is Klebsiella pneumoniae ATCC 13883.
In experiment [6] the test system is Pseudomonas aeruginosa PAO1.
Experiment [7] deals with Salmonella enterica subsp. enterica serovar Typhimurium ATCC 14028.
Experiment [8] concerns Staphylococcus aureus ATCC 25923.

For `CC[C@H](C)[C@H](NC(=O)[C@H](C)NC(=O)[C@@H]1CCCN1C(=O)[C@H](CC(C)C)NC(=O)[C@@H](N)Cc1ccccc1)C(=O)N[C@@H](C)C(=O)NCC(=O)N[C@H](C(=O)N[C@@H](C)C(=O)N[C@@H](C)C(=O)N[C@@H](CCCCN)C(=O)N[C@@H](Cc1ccccc1)C(=O)N[C@@H](CC(C)C)C(=O)N1CCC[C@H]1C(=O)N[C@@H](CCCCN)C(=O)N[C@H](C(=O)N[C@@H](Cc1ccccc1)C(=O)N[C@H]1CSSC[C@@H](C(=O)O)NC(=O)[C@H](CCCCN)NC(=O)[C@H](CCCCN)NC(=O)[C@H](CO)NC(=O)[C@H]([C@@H](C)CC)NC(=O)[C@H](C)NC1=O)[C@@H](C)CC)C(C)C` [FLPAIAGVAAKFLPKIFCAISKKC], the MIC in experiment [1] was 7 µM (≈ 17.7 µg/mL); in experiment [2] it was 7 µM (≈ 17.7 µg/mL); in experiment [3], 3 µM (≈ 7.61 µg/mL).

As to `CC[C@H](C)[C@@H]1NC(=O)[C@H](C)NC(=O)[C@@H](NC(=O)[C@H](Cc2ccccc2)NC(=O)[C@@H](NC(=O)[C@H](CCCCN)NC(=O)[C@@H]2CCCN2C(=O)[C@H](CC(C)C)NC(=O)[C@H](Cc2ccccc2)NC(=O)[C@H](CC(N)=O)NC(=O)[C@H](C)NC(=O)[C@H](C)NC(=O)[C@H](CC(C)C)NC(=O)CNC(=O)[C@H](C)NC(=O)[C@@H](NC(=O)[C@H](CC(C)C)NC(=O)[C@@H]2CCCN2C(=O)[C@H](CC(C)C)NC(=O)[C@@H](N)Cc2ccccc2)[C@@H](C)CC)[C@@H](C)CC)CSSC[C@@H](C(=O)O)NC(=O)[C@H](CCCCN)NC(=O)[C@H](CCCCN)NC(=O)[C@H]([C@@H](C)O)NC1=O` [FLPLIAGLAANFLPKIFCAITKKC], the MIC is 6 µM (≈ 15.5 µg/mL) in experiment [1], 26 µM (≈ 67.4 µg/mL) in experiment [2] and 9 µM (≈ 23.3 µg/mL) in experiment [3].

For `CC[C@H](C)[C@@H]1NC(=O)[C@H](CCCCN)NC(=O)[C@@H](NC(=O)[C@H](C)NC(=O)[C@@H](NC(=O)[C@H](CC(C)C)NC(=O)[C@H](CC(=O)O)NC(=O)[C@@H](NC(=O)CNC(=O)[C@H](CC(C)C)NC(=O)[C@H](CCCCN)NC(=O)[C@@H](NC(=O)[C@H](CC(C)C)NC(=O)[C@H](CC(=O)O)NC(=O)[C@H](CCCCN)NC(=O)CNC(=O)[C@H](CC(C)C)NC(=O)CNC(=O)[C@H](CCCCN)NC(=O)[C@H](CO)NC(=O)[C@H](C)NC(=O)[C@H](Cc2ccccc2)NC(=O)[C@H](CCCCN)NC(=O)[C@H](C)NC(=O)[C@H](C)NC(=O)CNC(=O)[C@H](CCCN=C(N)N)NC(=O)[C@H](CC(C)C)NC(=O)[C@@H](NC(=O)[C@H](CO)NC(=O)[C@H](Cc2ccccc2)NC(=O)[C@H](CC(C)C)NC(=O)CN)[C@@H](C)CC)[C@@H](C)O)C(C)C)C(C)C)CSSC[C@@H](C(=O)O)NC(=O)[C@H](CCC(N)=O)NC(=O)[C@H](CCCCN)NC(=O)[C@H](CO)NC1=O` [GLFSILRGAAKFASKGLGKDLTKLGVDLVACKISKQC], the MIC turned out to be 29 µM (≈ 111 µg/mL) in experiment [1], 1 µM (≈ 3.84 µg/mL) in experiment [2] and 1 µM (≈ 3.84 µg/mL) in experiment [3].

For `CC(C)C[C@H](NC(=O)[C@H](CCCCN)NC(=O)[C@H](CCCCN)NC(=O)[C@H](C)NC(=O)[C@H](Cc1c[nH]c2ccccc12)NC(=O)CNC(=O)[C@H](CCCCN)NC(=O)[C@@H](N)CCCCN)C(=O)N[C@@H](C)C(=O)N[C@@H](Cc1ccccc1)C(=O)N[C@@H](C)C(=O)N[C@@H](Cc1ccccc1)C(=O)NCC(=O)N[C@@H](CCCCN)C(=O)N[C@@H](CCCCN)C(=O)O` [KKGWAKKLAFAFGKK], the MIC in experiment [4] was above 30 µM; in experiment [2], 7.3 µM and 8.9 µM; in experiment [5] it was 30 µM (≈ 51.2 µg/mL); in experiment [6], 20.7 µM and 23.7 µM; in experiment [7], 22.2 µM (≈ 37.9 µg/mL); in experiment [8] it was above 30 µM.
